The values below come from US4029688A, “Carbamic pesticidal compositions” (priority 1974, dated 1977).

One assay concerns two-spotted mite (Tetranychus urticae Koch). The assay can be described thus: Mite Foliage Spray Test. The assay is classed as in vivo. Details: key to Mite (Spray): C: no control; B: partial control; A: excellent control. To be noted: foliage spray, 500 parts per million, six days. The method, then:
(§1) Suspensions of the test compounds were prepared by dissolving one gram of compound in 50 milliliters of acetone in which had been dissolved 0.1 gram (10 percent of the weight of compound) of an alkylphenoxy polyethoxyethanol surfactant, as an emulsifying or dispersing agent. The resulting solution was mixed into 150 milliliters of water to give roughly 200 milliliters of a suspension containing the compound in finely divided form. The thus-prepared stock suspension contained 0.5 percent by weight of compound. The test concentrations in parts per million by weight employed in the tests described hereinbelow were obtained by appropriate dilutions of the stock suspension with water. The test procedures were as follows:
Adults and numphal stages of the two-spotted mite (Tetranychus urticae Koch), reared on Tendergreen bean plants at 80±5 percent relative humidity, were the test organisms. Infested leaves from a stock culture were placed on the primary leaves of two bean plants six to eight inches in height, growing in a 21/2 inch clay pot. 150 -200 Mites, a sufficient number for testing, transferred from the excised leaves to the fresh plants in a period of twenty-four hours. Following the twenty-four hour transfer period, the excised leaves were removed from the infested plants. The test compounds were formulated by diluting the stock suspension with water to give a suspension containing 500 parts of test compound per million parts of final formulation. The potted plants (one pot per compound) were placed on a revolving turntable and sprayed with 100-110 milliliters of test compound formulation by use of a DeVilbiss spray gun set at 40 psig. air pressure. This application, which lasted 25 seconds, was sufficient to wet the plants to run-off. As a control, 100-110 milliliters of a water solution containing acetone and emulsifier in the same concentrations as the test compound formulation, but containing no test compound, were also sprayed on infested plants. The sprayed plants were held at 80±5 percent relative humidity for six days, after which a mortality count of motile forms was made. Microscopic examination for motile forms was made on the leaves of the test plants. Any individual which was capable of locomotion upon prodding was considered living.
(§2) In the tests described above, the pesticidal activity of the compounds against aphid, mite, Southern Armyworm, Bean Beetle, house fly and nematode was rated as follows:
(§3) Comparison tests were conducted to assess the biological and chemical properties of certain representative species of the claimed invention in relation to their corresponding N-methyl carbamate compositions. The test procedures described above were employed in these experiments in order to determine the LD50 (number of parts per million of active ingredients required to achieve fifty percent mortality of the insects tested) for each of the compositions tested. In the case of the aphid and mite tests a side by side comparison was made of the N-methyl carbamate composition versus the corresponding perhalomethylsulfenyl derivative.
Take `CC(=NOC(=O)N(C)SC(Cl)(Cl)Cl)C(C)(C)C#N`: the “Mite (Spray)” value is “A”.
Same read-out and setting: under `COC(C)(C)C(Cl)=NOC(=O)N(C)SC(Cl)(Cl)Cl` stands “A”.
Still for that read-out and setting: then `CCOC(=O)CSC(C)(C)C=NOC(=O)N(C)SC(Cl)(Cl)Cl`, with “C”; and `CCOC(=O)C(C)SC(C)(C)C=NOC(=O)N(C)SC(Cl)(Cl)Cl` (stereo not shown), with “B”.
The same measure, in the same setting: then `CSC(=NOC(=O)N(C)SC(Cl)(Cl)Cl)C(C)(SC)SC`, with “A”; and `CCOC(=O)CSC(C)=NOC(=O)N(C)SC(Cl)(Cl)Cl`, with “C”; and `CCOC(=O)CCSC(C)=NOC(=O)N(C)SC(Cl)(Cl)Cl`, with “C”.
Consider `CN(SC(Cl)(Cl)Cl)C(=O)ON=CC(C)(C)[S+](C)[O-]` (stereo not shown) [2-Methyl-2-methylsulfinylpropionaldehyde O-(N-methyl-N-trichloromethanesulfenylcarbamoyl)oxime], for which the “Mite (Spray)” value is reported as “A”.
On the same count and under the same terms, then `CN(SC(Cl)(Cl)Cl)C(=O)ON=CC(C)(C)S(C)(=O)=O` [2-Methyl-2-methylsulfonylpropionaldehyde O-(N-methyl-N-trichloromethanesulfenylcarbamoyl)oxime], with “A”; and `CN(SC(F)(F)F)C(=O)ON=CC(C)(C)C#N` [drawing 12], with “A”.

In another assay the test system is southern armyworm (Prodenia eridania, (Cram.)). The assay is described as follows: Southern Armyworm Leaf Spray Test. The assay is classed as in vivo. Further details: key to Armyworm: C: no control; B: partial control; A: excellent control. Particulars: leaf spray, 500 parts per million, three days. The method, then: as §1
Larvae of the southern armyworm (Prodenia eridania, (Cram.)), reared on Tendergreen bean plants at a temperature of 80°±5° F. and a relative humidity of 50±5 percent, constituted the test insects.
The test compounds were formulated by diluting the stock suspension with water to give a suspension containing 500 parts of test compound per million parts of final formulation. Potted Tendergreen bean plants of standard height and age were placed on a revolving turntable and sprayed with 100-110 milliliters of test compound formulation by use of a DeVilbiss spray gun set at 10 psig air pressure. This application, which lasted 25 seconds, was sufficient to wet plants to run-off. As a control, 100-110 milliliters of a water-acetone-emulsifier solution containing no test compound were also sprayed on infested plants. When dry, the paired leaves were separated and each one was placed in a 9 centimeter Petri dish lined with moistened filter paper. Five randomly selected larvae were introduced into each dish and the dishes were closed. The closed dishes were labeled and held at 80-85° F. for three days. Although the larvae could easily consume the whole leaf within twenty-four hours, no more food was added. Larvae which were unable to move the length of the body, even upon stimulation by prodding, were considered dead. Percent mortality was recorded for various concentration levels.
as §2, §3
Regarding `CC(=NOC(=O)N(C)SC(Cl)(Cl)Cl)C(C)(C)C#N`, the Armyworm result is listed as “B”.
As to `COC(C)(C)C(Cl)=NOC(=O)N(C)SC(Cl)(Cl)Cl`, the Armyworm entry is given as “C”.
The same measure, in the same setting: then `CCOC(=O)CSC(C)(C)C=NOC(=O)N(C)SC(Cl)(Cl)Cl`, with “C”.
On the same count and under the same terms, then `CCOC(=O)C(C)SC(C)(C)C=NOC(=O)N(C)SC(Cl)(Cl)Cl` (stereo not shown), with “C”; and `CSC(=NOC(=O)N(C)SC(Cl)(Cl)Cl)C(C)(SC)SC`, with “C”; and `CCOC(=O)CSC(C)=NOC(=O)N(C)SC(Cl)(Cl)Cl`, with “C”.
Same read-out and setting: then `CCOC(=O)CCSC(C)=NOC(=O)N(C)SC(Cl)(Cl)Cl`, with “B”.
For `CN(SC(Cl)(Cl)Cl)C(=O)ON=CC(C)(C)[S+](C)[O-]` (stereo not shown) [2-Methyl-2-methylsulfinylpropionaldehyde O-(N-methyl-N-trichloromethanesulfenylcarbamoyl)oxime], the Armyworm result is recorded as “A”.
In the case of `CN(SC(Cl)(Cl)Cl)C(=O)ON=CC(C)(C)S(C)(=O)=O` [2-Methyl-2-methylsulfonylpropionaldehyde O-(N-methyl-N-trichloromethanesulfenylcarbamoyl)oxime], the Armyworm entry was “C”.
As to `CN(SC(F)(F)F)C(=O)ON=CC(C)(C)C#N` [drawing 12], the Armyworm entry is on record as “A”.

For the next assay, the system named is Mexican bean beetle (Epilachna varivestis, Muls.). The assay can be described thus: Mexican Bean Beetle Leaf Spray Test. Details: key to Beetle: C: no control; B: partial control; A: excellent control. The assay is classed as in vivo. Particulars: leaf spray, 500 parts per million, three days. The method, then: as §1
Fourth instar larvae of the Mexican bean beetle (Epilachna varivestis, Muls.), reared on Tendergreen bean plants at a temperature of 80°±5° F. and 50±5 percent relative humidity, were the test insects.
The test compounds were formulated by diluting the stock suspension with water to give a suspension containing 500 parts of test compound per million parts of final formulation. Potted Tendergreen bean plants of standard height and age were placed on a revolving turntable and sprayed with 100-110 milliliters of test compound formulation by use of a DeVilbiss spray gun set at 10 psig air pressure. This application, which lasted 25 seconds, was sufficient to wet plants to run-off. As a control, 100-110 milliliters of a water-acetone-emulsifier solution containing no test compound were also sprayed on infested plants. When dry, the paired leaves were separated and each was placed in a 9 centimeter Petri dish lined with moistened filter paper. Five randomly selected larvae were introduced into each dish, and the dishes were closed. The closed dishes were labeled and held at a temperature of 80°±5° F. for three days. Although the larvae could easily consume the leaf within 24 to 48 hours, no more food was added. Larvae which were unable to move the length of the body, even upon stimulation, were considered dead.
as §2, §3
Turning to `CC(=NOC(=O)N(C)SC(Cl)(Cl)Cl)C(C)(C)C#N`, the Beetle entry was “A”.
Still for that read-out and setting: under `COC(C)(C)C(Cl)=NOC(=O)N(C)SC(Cl)(Cl)Cl` stands “A”.
The same measure, in the same setting: under `CCOC(=O)CSC(C)(C)C=NOC(=O)N(C)SC(Cl)(Cl)Cl` stands “B”; under `CCOC(=O)C(C)SC(C)(C)C=NOC(=O)N(C)SC(Cl)(Cl)Cl` (stereo not shown), “C”.
The same measure, in the same setting: then `CSC(=NOC(=O)N(C)SC(Cl)(Cl)Cl)C(C)(SC)SC`, with “A”; and `CCOC(=O)CSC(C)=NOC(=O)N(C)SC(Cl)(Cl)Cl`, with “C”.
`CCOC(=O)CCSC(C)=NOC(=O)N(C)SC(Cl)(Cl)Cl`: the Beetle entry is “B”.
`CN(SC(Cl)(Cl)Cl)C(=O)ON=CC(C)(C)[S+](C)[O-]` (stereo not shown) [2-Methyl-2-methylsulfinylpropionaldehyde O-(N-methyl-N-trichloromethanesulfenylcarbamoyl)oxime]: the Beetle entry is recorded as “A”.
Same read-out and setting: under `CN(SC(Cl)(Cl)Cl)C(=O)ON=CC(C)(C)S(C)(=O)=O` [2-Methyl-2-methylsulfonylpropionaldehyde O-(N-methyl-N-trichloromethanesulfenylcarbamoyl)oxime] stands “A”; under `CN(SC(F)(F)F)C(=O)ON=CC(C)(C)C#N` [drawing 12], “A”.

The test system of another assay is root-knot nematode, Meloidogyne incognita var. acrita. The assay can be described thus: Nematocide Test. The assay is classed as in vivo. Further details: key: C: no control; B: partial control; A: excellent control. Particulars: 3.33 m.g. per jar, galling of cucumber rated after approximately 3 weeks. The method, then: The test organism used was the infective migratory larvae of the root-knot nematode, Meloidogyne incognita var. acrita, reared in the greenhouse on roots of cucumber plants. Infected plants were removed from the culture, and the roots are chopped very finely. A small amount of this inoculum was added to a pint jar containing approximately 180 cc. of soil. The jars were capped and incubated for one week at room temperature. During this period eggs of the nematode were hatched, and the larval forms migrated into the soil.
Ten ml. of the test formulation were added to each of the two jars for each dosage tested. Following the addition of chemical, the jars were capped, and the contents thoroughly mixed on a ball mill for 5 minutes.
The test compounds were formulated by a standard procedure of solution in acetone addition of an emulsifier, and dilution with water. Primary screening tests were conducted at 3.33 m.g. of the test compound per jar.
The jars were left capped at room temperature for a period of 48 hours, and the contents then transferred to 3 inch pots. Subsequently, the pots were seeded to cucumber as an indicator crop and placed in the greenhouse where they were cared for in the normal fashion for approximately 3 weeks.
The cucumber plants were then taken from the pots, the soil removed from the roots, and the amount of galling visually rated.
In the tests described above, the pesticidal activity of the compounds against aphid, mite, Southern Armyworm, Bean Beetle, house fly and nematode was rated as follows: […]
Consider `CC(=NOC(=O)N(C)SC(Cl)(Cl)Cl)C(C)(C)C#N`, for which the Nematode entry was “C”.
Same read-out and setting: under `COC(C)(C)C(Cl)=NOC(=O)N(C)SC(Cl)(Cl)Cl` stands “A”; under `CCOC(=O)CSC(C)(C)C=NOC(=O)N(C)SC(Cl)(Cl)Cl`, “C”; under `CCOC(=O)C(C)SC(C)(C)C=NOC(=O)N(C)SC(Cl)(Cl)Cl` (stereo not shown), “C”.
Regarding `CSC(=NOC(=O)N(C)SC(Cl)(Cl)Cl)C(C)(SC)SC`, the Nematode result is listed as “C”.
Turning to `CCOC(=O)CSC(C)=NOC(=O)N(C)SC(Cl)(Cl)Cl`, the Nematode result is “C”.
With `CCOC(=O)CCSC(C)=NOC(=O)N(C)SC(Cl)(Cl)Cl`, the Nematode result is reported as “C”.
Still for that read-out and setting: under `CN(SC(Cl)(Cl)Cl)C(=O)ON=CC(C)(C)[S+](C)[O-]` (stereo not shown) [2-Methyl-2-methylsulfinylpropionaldehyde O-(N-methyl-N-trichloromethanesulfenylcarbamoyl)oxime] stands “A”; under `CN(SC(Cl)(Cl)Cl)C(=O)ON=CC(C)(C)S(C)(=O)=O` [2-Methyl-2-methylsulfonylpropionaldehyde O-(N-methyl-N-trichloromethanesulfenylcarbamoyl)oxime], “C”.
Turning to `CN(SC(F)(F)F)C(=O)ON=CC(C)(C)C#N` [drawing 12], the Nematode entry is recorded as “A”.
